Here are results for one compound from patent EP4736876A1, “DRUG COMBINATION CONTAINING PD-L1 SMALL MOLECULE INHIBITOR AND USE THEREOF” (Beijing Maxinovel Pharmaceuticals Co., Ltd., priority 2023, dated 2025).

One data set concerns 4T1 hPD-L1 cells. Put plainly: Pharmacodynamic study on mouse breast cancer 4T1 hPD-L1 model, subcutaneous (Example 1, capecitabine combination). It is filed as in vivo, BALB/c mice. The following applies: Compound of Formula I 120 mg/kg p.o. BID, Capecitabine 100 mg/kg p.o. QD. How it is done: Experimental animals: 100 BALB/c mice, female, 6 to 8 weeks old, weighing 18 to 21 g, purchased from Shanghai Jihui Laboratory Animal Care Co., Ltd. (SCXK (Shanghai) 2020-0009; Certificate No.: 20220009001922).
Drugs: Compound of Formula I [drawing 4] manufacturer: Pharmaron (Tianjin) Process Development and Manufacturing Co., Ltd., batch number: TJ-MAX-10181-A-2; Capecitabine, manufacturer: Shanghai Yuanye Bio-Technology Co., Ltd., batch number: J10J12L137020.
Murine 4T1 hPD-L1 cells were grown adherently in vitro under culture conditions of RPMI-1640 medium supplemented with 10% heat-inactivated fetal bovine serum and 4 µg/mL Blasticidin (Beyotime/ST018-1mL), at 37°C with 5% CO2. Cells were passaged 2 to 3 times per week. When cells were in the exponential growth phase, the cells were harvested, counted, and inoculated subcutaneously on the right dorsal side of BALB/c mice.
100 µL of 1 × 10^6 4T1 hPD-L1 cell suspension was inoculated subcutaneously on the right dorsal side of BALB/c mice. On the 6th day after inoculation, suitable animals were selected based on tumor volume and body weight, and stratified randomization was used to divide them into 4 groups, with 10 mice per group. Administration began on the day of grouping. Table 1: Animal Experiment Grouping and Administration Regimen
The experimental indicators were examined to determine whether tumor growth could be inhibited, delayed, or cured. Tumors were measured three times per week using a digital vernier caliper. The tumor volume was calculated using the formula: V = 0.5a × b^2, where a and b represent the long and short diameters of the tumor, respectively. The tumor growth inhibition efficacy of compounds was calculated as: TGI (%) = [1 - (TVi - TV0) / (TVVi - TVV0)] × 100% (where TV0 represents the mean volume of the treatment group on day 0, TVV0 represents the mean volume of the control group on day 0; TVi represents the mean volume of the treatment group on day i, and TVVi represents the mean volume of the control group on day i).
If the animals' health condition continued to deteriorate, or the tumor volume exceeded 2,000 mm^3, or severe illness or pain occurred, euthanasia was required. In the following circumstances, the veterinarian was notified and euthanasia was performed: • (1) Significant emaciation with body weight loss exceeding 20%; • (2) Inability to freely access food and water; • (3) The experiment was terminated when the average tumor volume in the control group reached 2000 mm^3.
GraphPad Prism 8.0 software was used for plotting. Changes in tumor volume in mice were analyzed by Two-way ANOVA and compared with the vehicle control group using Dunnett's method, with P < 0.05 considered statistically significant.

The subject of another data set is GL-261-luc cells. Briefly: Mouse glioma GL-261-luc brain orthotopic xenograft tumor model, pharmacodynamics and survival (Example 4, temozolomide combination). The data set is classed as in vivo, C57 BL/6 mice. The conditions noted are these: Compound of Formula I 120 mg/kg PO BID, TMZ 7.5 mg/kg IP BIW. How it is done:
Experimental animals: 57 C57 BL/6 mice, female, 6 to 8 weeks old, weighing 16 to 20 g, purchased from Shanghai Jihui Laboratory Animal Care Co., Ltd.
Drugs: Compound of Formula I [drawing 5] manufacturer: Pharmaron (Tianjin) Process Development and Manufacturing Co., Ltd., batch number: TJ-MAX-10181-A-2; TMZ (Temozolomide), manufacturer: Shanghai Aladdin Biochemical Technology Co., Ltd., batch number: J2227749.
Murine GL-261-luc cells were grown adherently in vitro under culture conditions of DMEM medium supplemented with 10% heat-inactivated fetal bovine serum and 0.6 mg/mL G418 (stock concentration: 100 mg/mL), at 37°C with 5% CO2. Cells were passaged 2 to 3 times per week. When cells were in the exponential growth phase, the cells were harvested, counted, and inoculated into the right caudate nucleus of C57 BL/6 mice.
GL-261-luc cells in logarithmic growth phase were harvested at full confluence with viability guaranteed 90% or more. Mice were anesthetized via intraperitoneal injection of 41.6 mg/kg Zoletil according to body weight. 1 × 10^5/2 µL/mouse cells was orthotopically inoculated into the right caudate nucleus of each mouse, and the skin was sutured with 4/0 suture. After recovery, mice were returned to their cages. 4 days after inoculation, mice were imaged and grouped using the IVIS Lumina XR small animal imager. Fluorescence signal intensity was used for stratified randomization into 4 groups (9 mice per group). Administration began on the day of grouping, with daily weight monitoring and observation of mouse growth status. Mice were imaged twice weekly. Table 11: Animal Experiment Grouping and Administration Regimen
The experimental indicators were examined to determine whether tumor growth could be inhibited, delayed, or cured. According to the experimental design, tumor growth was monitored by imaging mice using the IVIS Lumina XR small animal imager. The tumor growth inhibition efficacy of the compounds was evaluated using TGI (Tumor Growth Inhibition), where TGI (%) = [1 - (TFtreatment-Dn - TFtreatment-D0) / (TFcontrol-Dn - TFcontrol-D0)] × 100% (where TFtreatment-D0 represents the fluorescence signal intensity of the treatment group on day 0, TFcontrol-D0 represents the fluorescence signal intensity of the control group on day 0; TFtreatment-Dn represents the fluorescence signal intensity of the treatment group on day n, and TFcontrol-Dn represents the fluorescence signal intensity of the control group on day n). The calculation formula for an increase in life span (ILS) is: ILS = (MSTTreatment - MSTControl) / MSTControl × 100% (where MSTTreatment is the median survival days for the treatment group, and MSTControl is the median survival days for the control group).
Tumor size was analyzed using the statistical software GraphPad Prism based on fluorescence signal intensity values. Two-way ANOVA was used to compare whether there were significant differences in fluorescence signal intensity between the control group and each treatment group, with p < 0.05 considered statistically significant and p < 0.01 considered highly statistically significant.

SMILES strings stand for the structures.

For the compound `Cc1c(/C=C/c2cc(CN[C@@](C)(CO)C(=O)O)ccc2C(F)(F)F)cccc1-c1ccccc1` [Compound of Formula I], in the data set with 4T1 hPD-L1 cells (Day 21 vs vehicle control), the “TGI (%)/Day 21” value came out at 41.88%. For the same compound, the “Tumor Volume at the End of the Experiment/Day 21” value with 4T1 hPD-L1 cells (mean, n=10, Day 21) is on record as 1103.30 mm^3. In addition, in the data set on 4T1 hPD-L1 cells (mean, n=10, baseline on day of grouping), the “Tumor Volume at the Beginning of the Experiment/Day 0” value was determined as 125.52 mm^3. The “Body Weight of Animals at the Beginning of the Experiment” value with 4T1 hPD-L1 cells (mean, baseline) came to 24.20 g. Moreover, the “TGI (%)/Day 14” value in the data set on GL-261-luc cells (Day 14, based on fluorescence signal intensity vs vehicle control) amounted to 40.52%. In the data set on GL-261-luc cells (Day 14), the “Total Fluorescence Intensity at the End of the Experiment/Day 14” value came out at 1.18E + 09 p/s. Further, the “Total Fluorescence Intensity at the Beginning of the Experiment/Day 0” value in the data set with GL-261-luc cells (baseline Day 0) amounted to 2.75E + 07 p/s. In addition, the “mice showed > 10% body weight loss” value in the data set on GL-261-luc cells (by day 14 of administration, 9 mice per group) stood at 2 mice. Further, in the data set on GL-261-luc cells (mean, n=9), the “Body Weight of Animals at the End of the Experiment” value is recorded as 18.29 g and the “Relative Body Weight Change of Animals at the End of the Experiment” value is listed as -3.08%. In addition, the “Body Weight of Animals at the Beginning of the Experiment” value in the data set with GL-261-luc cells (mean, n=9, baseline) was 18.89 g. The “increase in life span (ILS)” value with GL-261-luc cells (median survival vs vehicle control, end of experiment) was 20%.
